Our source for the IC50 values is ChEMBL document CHEMBL1129190, “Solid-phase parallel synthesis applied to lead optimization: Discovery of potent analogues of the GPIIb/IIIa antagonist RWJ-50042” (Bioorg Med Chem Lett, 1996).

A value given as a limit tells only on which side of the number the result lay.

Integrin alpha-IIb/beta-3, sequence (P05106 27-788 limits assumed): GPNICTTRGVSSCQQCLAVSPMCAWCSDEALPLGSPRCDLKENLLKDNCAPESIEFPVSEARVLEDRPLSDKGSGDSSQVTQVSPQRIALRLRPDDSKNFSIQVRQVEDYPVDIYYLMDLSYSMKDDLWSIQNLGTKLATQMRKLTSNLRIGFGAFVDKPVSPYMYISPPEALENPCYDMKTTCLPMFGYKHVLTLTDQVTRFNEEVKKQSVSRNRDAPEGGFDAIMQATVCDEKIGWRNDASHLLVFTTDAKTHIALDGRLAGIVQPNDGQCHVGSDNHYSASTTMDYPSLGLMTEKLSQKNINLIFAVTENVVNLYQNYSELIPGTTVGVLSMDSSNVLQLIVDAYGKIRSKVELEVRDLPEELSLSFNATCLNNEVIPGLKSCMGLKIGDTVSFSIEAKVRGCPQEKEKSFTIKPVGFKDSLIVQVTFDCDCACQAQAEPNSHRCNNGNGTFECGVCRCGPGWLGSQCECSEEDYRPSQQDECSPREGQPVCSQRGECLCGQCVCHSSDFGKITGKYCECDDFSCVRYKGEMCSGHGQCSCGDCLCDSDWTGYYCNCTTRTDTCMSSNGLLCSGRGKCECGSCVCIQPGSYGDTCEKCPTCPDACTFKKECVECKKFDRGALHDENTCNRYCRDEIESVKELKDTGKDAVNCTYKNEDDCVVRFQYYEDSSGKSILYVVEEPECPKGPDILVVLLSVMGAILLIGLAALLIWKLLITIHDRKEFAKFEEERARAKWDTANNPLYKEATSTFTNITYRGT
Integrin alpha-IIb/beta-3, sequence (P08514 32-887 limits assumed): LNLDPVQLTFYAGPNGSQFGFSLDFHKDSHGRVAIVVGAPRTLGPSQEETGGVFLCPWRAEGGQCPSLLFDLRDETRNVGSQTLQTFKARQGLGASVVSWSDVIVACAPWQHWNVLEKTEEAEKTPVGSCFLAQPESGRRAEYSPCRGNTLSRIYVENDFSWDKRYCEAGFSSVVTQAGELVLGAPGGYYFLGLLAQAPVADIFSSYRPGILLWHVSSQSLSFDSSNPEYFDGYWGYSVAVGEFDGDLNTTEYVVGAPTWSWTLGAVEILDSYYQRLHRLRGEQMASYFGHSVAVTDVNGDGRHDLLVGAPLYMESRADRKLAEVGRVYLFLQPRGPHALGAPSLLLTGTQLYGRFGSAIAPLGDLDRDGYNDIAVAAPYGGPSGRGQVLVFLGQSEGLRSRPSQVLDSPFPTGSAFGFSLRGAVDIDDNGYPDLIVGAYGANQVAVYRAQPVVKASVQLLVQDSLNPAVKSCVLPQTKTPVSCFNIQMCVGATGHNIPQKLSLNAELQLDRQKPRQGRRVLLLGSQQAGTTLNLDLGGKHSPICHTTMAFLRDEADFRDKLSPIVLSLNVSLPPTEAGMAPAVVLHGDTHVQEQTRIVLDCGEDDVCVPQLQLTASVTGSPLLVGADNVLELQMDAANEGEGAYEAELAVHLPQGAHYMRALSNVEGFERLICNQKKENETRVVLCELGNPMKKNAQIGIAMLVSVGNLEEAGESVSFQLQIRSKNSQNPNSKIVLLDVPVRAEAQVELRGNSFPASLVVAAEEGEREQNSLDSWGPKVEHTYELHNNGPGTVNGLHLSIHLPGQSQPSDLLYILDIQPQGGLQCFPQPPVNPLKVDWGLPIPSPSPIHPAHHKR
Integrin alpha-IIb/beta-3, sequence (P08514 891-1039 limits assumed): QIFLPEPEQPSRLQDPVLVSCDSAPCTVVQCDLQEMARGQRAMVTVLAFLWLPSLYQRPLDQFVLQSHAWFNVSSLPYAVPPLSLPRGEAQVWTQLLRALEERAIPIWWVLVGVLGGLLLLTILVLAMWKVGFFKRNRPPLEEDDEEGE

The assay concerns the target Integrin alpha-IIb/beta-3 (Homo sapiens, UniProt P05106+P08514). Description: In vitro inhibition of biotinylated fibrinogen binding to immobilized integrin alpha IIb beta3. The format is protein-complex assay.
In the case of `O=C(O)CCNC(=O)C1CCCN(C(=O)CCC2CCNCC2)C1` (centres undefined), the IC50 (in general, the concentration needed to halve the response being measured) amounted to 6 nM.
With `O=C(O)CCNC(=O)C1CCN(C(=O)CCC2CCNCC2)CC1`, the half-maximal inhibitory concentration (IC50) was > 100 nM.
The compound `O=C(O)C[C@@H](C#Cc1ccccc1)NC(=O)[C@@H]1CCCN(C(=O)CCC2CCNCC2)C1` came in with a half-maximal inhibitory concentration (IC50) of 3 nM.
For the compound `COC(=O)C(CC(=O)O)NC(=O)C1CCCN(C(=O)CCC2CCNCC2)C1` (centres undefined), the IC50 is 3 nM.
In the case of `O=C(O)C1CCCC(NC(=O)C2CCCN(C(=O)CCC3CCNCC3)C2)C1` (centres undefined), the IC50 is > 50000 nM.
Consider `O=C(NCCS(=O)(=O)O)C1CCCN(C(=O)CCC2CCNCC2)C1` (centres undefined), for which the IC50 is 200 nM.
The value for `CC(CC(=O)O)NC(=O)C1CCCN(C(=O)CCC2CCNCC2)C1` (centres undefined) was 3 nM.
Compound `O=C(O)C1CN(C(=O)C2CCCN(C(=O)CCC3CCNCC3)C2)CCC1=O` (centres undefined) came in with a half-maximal inhibitory concentration (IC50) of 9 nM.
With `CC(C)(C)C#C[C@H](CC(=O)O)NC(=O)[C@@H]1CCCN(C(=O)CCC2CCNCC2)C1` the figure was 21 nM; with `O=C(O)CCNC(=O)C1CCCCN(C(=O)CCC2CCNCC2)C1` (centres undefined), 10 nM; with `O=C(O)CCNC(=O)C1CCCN(C(=O)NCC2CCNCC2)C1` (centres undefined), 20 nM.
The value for `O=C(O)C(O)CNC(=O)C1CCCN(C(=O)CCC2CCNCC2)C1` (centres undefined) was 5 nM; that for `O=C(O)CCNC(=O)C1CCCN(C(=O)OCC2CCNCC2)C1` (centres undefined) was 20 nM.
The value for `O=C(O)CCNC(=O)C1CCCN(C(=O)CCN2CCNCC2)C1` (centres undefined) was 2 nM; that for `O=C(O)CCNC(=O)C1CCCN(S(=O)(=O)CCC2CCNCC2)C1` (centres undefined) was 20 nM; that for `O=C(O)C[C@H](NC(=O)[C@@H]1CCCN(C(=O)CCC2CCNCC2)C1)c1cccs1` was 0.1 nM.
On to `CN(CCC(=O)O)C(=O)C1CCCN(C(=O)CCC2CCNCC2)C1` (centres undefined), for which the IC50 turned out to be 200 nM.
With `CC(CNC(=O)C1CCCN(C(=O)CCC2CCNCC2)C1)C(=O)O` (centres undefined), the IC50 is > 100 nM.
On to `CC(C)CC(CC(=O)O)NC(=O)C1CCCN(C(=O)CCC2CCNCC2)C1` (centres undefined), for which the half-maximal inhibitory concentration (IC50) came to 2 nM.
The value for `O=C(O)CCNC(=O)[C@H]1CCCN(C(=O)CCC2CCNCC2)C1` was 4 nM; that for `O=C(O)C[C@H](NC(=O)[C@@H]1CCCN(C(=O)CCC2CCNCC2)C1)c1cnc2ccccc2c1` was 0.1 nM; that for `O=C(O)CCNC(=O)[C@@H]1CCCN(C(=O)CCC2CCNCC2)C1` was 6 nM.
With `O=C(NCCc1nnn[nH]1)C1CCCN(C(=O)CCC2CCNCC2)C1` (centres undefined) the figure was 600 nM; with `O=C(O)CCNC(=O)C1CCN(C(=O)CCC2CCNCC2)C1` (centres undefined), 7 nM.
